Legend:
[1] = Solubility of erythromycin alone and as nano-dispersion with modified starch; format: physicochemical
Micrococcus luteus = experiment: In vitro microbiological activity, agar petri-dish filter-disc test (zones of bacteriostatic activity versus time); format: cell-based; conditions: identical concentrations of drug; observed until 216 hours post-application
Protocol: The microbiological activity of various concentrations of water-soluble complexes of clarithromycin prepared in Example 3 was tested on the bacterium Micrococcus luteus, which is sensitive to macrolide antibiotics, and compared to uncomplexed commercial clarithromycin using well-known agar-filled petri-dish tests. Small filter paper cut discs were impregnated with two different solution concentrations (100 or 1,000 μ/ml) of the tested antibiotics. Diameters of the zones pf bacteriostatic activity were measured versus time. […] It was also observed that the difference in microbiological activity for complexed clarithromycin having concentration differences of an order of magnitude between them is vastly greater than the corresponding differences noted with uncomplexed clarithromycin.

[2] = rats, same oral dose of 150 mg/kg; cited from earlier work

SMILES: CC[C@H]1OC(=O)[C@H](C)[C@@H](O[C@H]2C[C@@](C)(OC)[C@@H](O)[C@H](C)O2)[C@H](C)[C@@H](O[C@@H]2O[C@H](C)C[C@H](N(C)C)[C@H]2O)[C@](C)(O)C[C@@H](C)C(=O)[C@H](C)[C@@H](O)[C@]1(C)O [Erythromycin, erythromycin]
- solubility of the original drug in water [1]: 0.2%

SMILES: CC[C@H]1OC(=O)[C@H](C)[C@@H](O[C@H]2C[C@@](C)(OC)[C@@H](O)[C@H](C)O2)[C@H](C)[C@@H](O[C@@H]2O[C@H](C)C[C@H](N(C)C)[C@H]2O)[C@](C)(OC)C[C@@H](C)C(=O)[C@H](C)[C@@H](O)[C@]1(C)O [commercial clarithromycin, clarithromycin]
- time until which antibacterial activity continued (Micrococcus luteus): approximately 48 hours
- AUC0-24 hours, published data [2]: 32.54 µg·h/mL

From patent US20050191359A1, “Water soluble nanoparticles and method for their production” (SoluBest Ltd., priority 2001, published 2005)
